Each structure is given as a SMILES string.

In the assay the target is human α2δ-1 subunit of Cav2.2 calcium channel (Homo sapiens (Human), UniProt P54289). Nature of the assay: Binding assay to human α2δ-1 subunit of Cav2.2 calcium channel ([3H]-Gabapentin). Conditions: binding to α2δ-1, [3H]-Gabapentin; read-out: Ki (nM) α2δ-1. On the procedure: Binding Assay to Human α2δ-1 Subunit of Cav2.2 Calcium Channel.
human α2δ-1 subunit of Cav2.2 calcium channel, sequence (P54289 25-1103): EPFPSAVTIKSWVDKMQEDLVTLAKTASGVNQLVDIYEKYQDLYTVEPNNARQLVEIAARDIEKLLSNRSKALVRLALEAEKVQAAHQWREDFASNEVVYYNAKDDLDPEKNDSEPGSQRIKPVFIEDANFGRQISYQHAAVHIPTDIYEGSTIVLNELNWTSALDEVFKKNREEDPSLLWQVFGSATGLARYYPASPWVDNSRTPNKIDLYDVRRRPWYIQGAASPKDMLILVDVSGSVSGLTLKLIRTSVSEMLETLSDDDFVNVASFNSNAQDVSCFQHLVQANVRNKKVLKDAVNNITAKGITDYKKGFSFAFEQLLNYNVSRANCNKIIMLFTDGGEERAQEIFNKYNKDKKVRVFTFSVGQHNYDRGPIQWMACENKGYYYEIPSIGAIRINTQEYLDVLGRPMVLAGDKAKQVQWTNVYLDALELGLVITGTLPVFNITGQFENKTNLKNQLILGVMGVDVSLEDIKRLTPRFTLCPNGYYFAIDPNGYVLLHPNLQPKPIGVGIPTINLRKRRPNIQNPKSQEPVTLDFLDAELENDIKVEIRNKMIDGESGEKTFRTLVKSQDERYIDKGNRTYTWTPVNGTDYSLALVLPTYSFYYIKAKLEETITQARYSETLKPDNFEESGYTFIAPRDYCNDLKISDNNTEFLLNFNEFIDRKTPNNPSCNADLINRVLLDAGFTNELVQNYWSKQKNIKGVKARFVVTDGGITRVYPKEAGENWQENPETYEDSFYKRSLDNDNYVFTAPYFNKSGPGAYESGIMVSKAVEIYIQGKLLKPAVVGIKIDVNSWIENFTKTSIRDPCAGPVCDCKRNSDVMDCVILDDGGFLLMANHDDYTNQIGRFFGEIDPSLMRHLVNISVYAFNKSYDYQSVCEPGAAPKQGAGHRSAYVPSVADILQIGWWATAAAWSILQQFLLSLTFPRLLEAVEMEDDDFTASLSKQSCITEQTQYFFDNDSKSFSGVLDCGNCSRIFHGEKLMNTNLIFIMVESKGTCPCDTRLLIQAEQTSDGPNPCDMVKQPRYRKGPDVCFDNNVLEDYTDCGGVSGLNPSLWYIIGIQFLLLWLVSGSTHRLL
NSB (non specific binding) was measured by adding 10 μM pregabalin. After 60 min incubation at 27° C., binding reaction was terminated by filtering through Multiscreen GF/C (Millipore) presoaked in 0.5% polyethyleneimine in Vacuum Manifold Station, followed by 3 washes with ice-cold filtration buffer containing 50 mM Tris-HCl, pH 7.4.
Filter plates were dried at 60° C. for 1 hour and 30 μl of scintillation cocktail were added to each well before radioactivity reading.
On to `CSc1ncc2c(n1)N(C)CCN(c1cccc(CN(C)C(=O)OC(C)(C)C)c1)C2=O` [Example 26, tert-butyl methyl(3-(9-methyl-2-(methylthio)-5-oxo-5,7,8,9-tetrahydro-6H-pyrimido[4,5-e][1,4]diazepin-6-yl)benzyl) carbamate], for which the Ki is above 3000 nM.

Regarding `CSc1ncc2c(n1)N(C)CCN(c1cccc(OC3CCN(C(=O)OC(C)(C)C)C3)c1)C2=O` (stereo not shown) [Example 27, tert-butyl 3-(3-(9-methyl-2-(methylthio)-5-oxo-5,7,8,9-tetrahydro-6H-pyrimido[4,5-e][1,4]diazepin-6-yl)phenoxy) pyrrolidine-1-carboxylate], the Ki is above 3000 nM.

As to `CSc1ncc2c(n1)N(C)CCN(c1cccc(COC3(c4ccccc4)CCN(C(=O)OC(C)(C)C)CC3)c1)C2=O` [Example 28, tert-butyl 4-((3-(9-methyl-2-(methylthio)-5-oxo-5,7,8,9-tetrahydro-6H-pyrimido[4,5-e][1,4]diazepin-6-yl)benzyl)oxy)-4-phenylpiperidine-1-carboxylate], the Ki is above 3000 nM.

Regarding `CSc1ncc2c(n1)N(C)CCN(c1cccc(-c3nnc(C)o3)c1)C2=O` [Example 29, 9-methyl-6-(3-(5-methyl-1,3,4-oxadiazol-2-yl)phenyl)-2-(methylthio)-6,7,8,9-tetrahydro-5H-pyrimido[4,5-e][1,4]diazepin-5-one], the inhibition constant Ki was above 3000 nM.

As for `CCN1CCN(c2cccc(-c3nnc(C)o3)c2)C(=O)c2cnc(SC)nc21` [Example 30, 9-ethyl-6-(3-(5-methyl-1,3,4-oxadiazol-2-yl)phenyl)-2-(methylthio)-6,7,8,9-tetrahydro-5H-pyrimido[4,5-e][1,4]diazepin-5-one], the Ki was above 3000 nM.

As for `CSc1ncc2c(n1)N(C)CCN(c1cccc(-c3noc(C)n3)c1)C2=O` [Example 31, 9-methyl-6-(3-(5-methyl-1,2,4-oxadiazol-3-yl)phenyl)-2-(methylthio)-6,7,8,9-tetrahydro-5H-pyrimido[4,5-e][1,4]diazepin-5-one], the Ki is above 3000 nM.

With `COc1cccc(N2CCN(C)c3nc(SC)ncc3C2=O)c1` [Example 32, 6-(3-methoxyphenyl)-9-methyl-2-(methylthio)-6,7,8,9-tetrahydro-5H-pyrimido[4,5-e][1,4]diazepin-5-one], the Ki was above 3000 nM.

With `CSc1ncc2c(n1)N(C)CCN(c1cccc(C#N)c1)C2=O` [Example 33, 3-(9-methyl-2-(methylthio)-5-oxo-5,7,8,9-tetrahydro-6H-pyrimido[4,5-e][1,4]diazepin-6-yl)benzonitrile], the Ki is above 3000 nM.

As for `CSc1ncc2c(n1)N(C)CCN(c1cccc(O[Si](C)(C)C(C)(C)C)c1)C2=O` [Example 34, 6-(3-((tert-butyldimethyl-silyl)oxy)phenyl)-9-methyl-2-(methylthio)-6,7,8,9-tetrahydro-5H-pyrimido[4,5-e][1,4]diazepin-5-one], the Ki is above 3000 nM.

Take `CSc1ncc2c(n1)N(C)CCN(c1cccc(Br)c1)C2=O` [Example 35, 6-(3-bromophenyl)-9-methyl-2-(methylthio)-6,7,8,9-tetrahydro-5H-pyrimido[4,5-e][1,4]diazepin-5-one]: the Ki was above 3000 nM.

On to `CSc1ncc2c(n1)N(C)CCN(c1cccc(CCO)c1)C2=O` [Example 36, 6-(3-(2-hydroxyethyl)phenyl)-9-methyl-2-(methylthio)-6,7,8,9-tetrahydro-5H-pyrimido[4,5-e][1,4]diazepin-5-one], for which the Ki was above 3000 nM.

Regarding `COc1ccc(N2CCN(C)c3nc(SC)ncc3C2=O)cc1` [Example 37, 6-(4-methoxyphenyl)-9-methyl-2-(methylthio)-6,7,8,9-tetrahydro-5H-pyrimido[4,5-e][1,4]diazepin-5-one], the Ki was above 3000 nM.

Regarding `CSc1ncc2c(n1)N(C)CCN(c1ccc(O[Si](C)(C)C(C)(C)C)cc1)C2=O` [Example 38, 6-(4-((tert-butyldimethyl-silyl)oxy)phenyl)-9-methyl-2-(methylthio)-6,7,8,9-tetrahydro-5H-pyrimido[4,5-e][1,4]diazepin-5-one], the Ki is above 3000 nM.

For `CSc1ncc2c(n1)N(C)CCN(c1cccc(-n3cc(CN(C)C(=O)OC(C)(C)C)nn3)c1)C2=O` [Example 39, tert-butyl methyl((1-(3-(9-methyl-2-(methylthio)-5-oxo-5,7,8,9-tetrahydro-6H-pyrimido[4,5-e][1,4]diazepin-6-yl)phenyl)-1H-1,2,3-triazol-4-yl)methyl) carbamate], the Ki was above 3000 nM.

Consider `CSc1ncc2c(n1)N(C)CCN(c1cccc(-n3cc(CNC(=O)OC(C)(C)C)nn3)c1)C2=O` [Example 40, tert-butyl ((1-(3-(9-methyl-2-(methylthio)-5-oxo-5,7,8,9-tetrahydro-6H-pyrimido[4,5-e][1,4]diazepin-6-yl)phenyl)-1H-1,2,3-triazol-4-yl)methyl) carbamate], for which the Ki is above 3000 nM.

With `CSc1ncc2c(n1)N(C)CCN(c1cccc(-n3cc(CN(Cc4ccccc4)C(=O)OC(C)(C)C)nn3)c1)C2=O` [Example 41, tert-butyl benzyl((1-(3 (9-methyl-2-(methylthio)-5-oxo-5,7,8,9-tetrahydro-6H pyrimido[4,5-e][1,4]diazepin-6-yl)phenyl)-1H-1,2,3-triazol-4-yl)methyl) carbamate], the Ki is above 3000 nM.

As to `CCOC(OCC)c1cn(-c2cccc(N3CCN(C)c4nc(SC)ncc4C3=O)c2)nn1` [Example 42, 6-(3-(4-(diethoxymethyl)-1H-1,2,3-triazol-1-yl)phenyl)-9-methyl-2-(methylthio)-6,7,8,9-tetrahydro-5H-pyrimido[4,5-e][1,4]diazepin-5-one], the inhibitory constant (Ki) was above 3000 nM.

Regarding `CSc1ncc2c(n1)N(C)CCN(c1cccc(-n3cc(CCN(C)C(=O)OC(C)(C)C)nn3)c1)C2=O` [Example 43, tert-butyl methyl(2-(1-(3-(9-methyl-2-(methylthio)-5-oxo-5,7,8,9-tetrahydro-6H-pyrimido[4,5-e][1,4]diazepin-6-yl)phenyl)-1H-1,2,3-triazol-4-yl)ethyl) carbamate], the Ki is above 3000 nM.

As for `CSc1ncc2c(n1)N(C)CCN(c1cccc(Cn3cc(CN(C)C(=O)OC(C)(C)C)nn3)c1)C2=O` [Example 44, tert-butyl methyl((1-(3-(9-methyl-2-(methylthio)-5-oxo-5,7,8,9-tetrahydro-6H-pyrimido[4,5-e][1,4]diazepin-6-yl)benzyl)-1H-1,2,3-triazol-4-yl)methyl) carbamate], the Ki was above 3000 nM.

In the case of `CSc1ncc2c(n1)N(C)CCN(c1cccc(-n3cc(CN(C)C(=O)OC(C)(C)C)cn3)c1)C2=O` [Example 45, tert-butyl methyl((1-(3-(9-methyl-2-(methylthio)-5-oxo-5,7,8,9-tetrahydro-6H-pyrimido[4,5-e][1,4]diazepin-6-yl)phenyl)-1H-pyrazol-4-yl)methyl) carbamate], the inhibition constant (Ki) is above 3000 nM.

Consider `CSc1ncc2c(n1)N(C)CCN(c1cccc(-n3cnc(CN(C)C(=O)OC(C)(C)C)c3)c1)C2=O` [Example 46, tert-butyl methyl((1-(3-(9-methyl-2-(methylthio)-5-oxo-5,7,8,9-tetrahydro-6H-pyrimido[4,5-e][1,4]diazepin-6-yl)phenyl)-1H-imidazol-4-yl)methyl) carbamate], for which the Ki was above 3000 nM.

For the compound `CSc1ncc2c(n1)N(C)CCN(c1ccccc1OC(CCN(C)C(=O)OC(C)(C)C)c1ccccc1)C2=O` (stereo not shown) [Example 48, tert-butyl methyl(3-(2-(9-methyl-2-(methylthio)-5-oxo-5,7,8,9-tetrahydro-6H-pyrimido [4,5-e][1,4]diazepin-6-yl)phenoxy)-3-phenylpropyl) carbamate], the Ki is above 3000 nM.

In the case of `CSc1ncc2c(n1)N(C)CCN(c1cccc(COC(CCN(C)C(=O)OC(C)(C)C)C(C)C)c1)C2=O` (stereo not shown) [Example 49, tert-butyl methyl (4-methyl-3-((3-(9-methyl-2-(methylthio)-5-oxo-5,7,8,9-tetrahydro-6H-pyrimido[4,5-e][1,4]diazepin-6-yl)benzyl)oxy)pentyl) carbamate], the inhibitory constant (Ki) was above 3000 nM.

Consider `CSc1ncc2c(n1)N(C)CCN(c1cccc(COC(C)CCN(C)C(=O)OC(C)(C)C)c1)C2=O` (stereo not shown) [Example 50, tert-butyl methyl(3-((3-(9-methyl-2-(methylthio)-5-oxo-5,7,8,9-tetrahydro-6H-pyrimido[4,5-e][1,4]diazepin-6-yl)benzyl)oxy)butyl) carbamate], for which the inhibitory constant (Ki) is above 3000 nM.

Regarding `CSc1ncc2c(n1)N(C)CCN(c1cccc(OC(CCN(C)C(=O)OCC[Si](C)(C)C)c3cccs3)c1)C2=O` (stereo not shown) [Example 51, 2-(trimethyl-silyl)ethyl methyl(3-(3-(9-methyl-2-(methylthio)-5-oxo-5,7,8,9-tetrahydro-6H-pyrimido[4,5-e][1,4]diazepin-6-yl)phenoxy)-3-(thiophen-2-yl)propyl) carbamate], the Ki is above 3000 nM.

Regarding `CSc1ncc2c(n1)N(C)CCN(c1cccc(OC(CCN(C)C(=O)OC(C)(C)C)c3ccccn3)c1)C2=O` (stereo not shown) [Example 52, tert-butyl methyl(3-(3-(9-methyl-2-(methylthio)-5-oxo-5,7,8,9-tetrahydro-6H-pyrimido[4,5-e][1,4]diazepin-6-yl)phenoxy)-3-(pyridin-2-yl)propyl) carbamate], the Ki was above 3000 nM.

In the case of `CSc1ncc2c(n1)N(C)CCN(c1cccc(OC(CCN(C)C(=O)OC(C)(C)C)c3cccnc3)c1)C2=O` (stereo not shown) [Example 53, tert-butyl methyl(3-(3-(9-methyl-2-(methylthio)-5-oxo-5,7,8,9-tetrahydro-6H-pyrimido[4,5-e][1,4]diazepin-6-yl)phenoxy)-3-(pyridin-3-yl)propyl) carbamate], the Ki was above 3000 nM.

In the case of `CCNc1cc2c(cn1)C(=O)N(c1cccc(-c3nnc(C)o3)c1)CCN2C` [Example 54, 8-(ethylamino)-1-methyl-4-(3-(5-methyl-1,3,4-oxadiazol-2-yl)phenyl)-1,2,3,4-tetrahydro-5H-pyrido[4,3-e][1,4]diazepin-5-one], the Ki was 100 to 500 nM.

As usually defined, the Ki is a measure of affinity in units of concentration, obtained from inhibition or displacement.

Values taken from patent publication US10590140B2, “Tetrahydropyrimidodiazepine and dihydropyridodiazepine compounds for treating pain and pain related conditions” (ESTEVE PHARMACEUTICALS, S.A., priority 2016, dated 2020).
